We go through 10 compounds from patent US20260092071A1, “COMPOUNDS AND COMPOSITIONS AS SMARCA2/4 DEGRADERS AND USES THEREOF” (REGENTS OF THE UNIVERSITY OF MICHIGAN, priority 2022, published 2026).

As a reminder, the Dmax is the greatest extent of degradation seen. One may read the DC50 as the midpoint of the concentration-degradation curve.

Read-outs that look alike come from different tables or passages of the source.

In assay [1] the target is SMARCA2 (Homo sapiens, UniProt P51531). Nature of the assay: HiBiT assay for protein degradation, Hela SMARCA2-HiBiT cells (A series).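 As to SMARC A2 Hela HiBit Dmax (%): 24 h compound treatment.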 The note with it: for Dmax: read-out: SMARC A2 Hela HiBit Dmax (%); for DC50: read-out: SMARC A2 Hela HiBit DC50. The class given is cell-based. Details: Hela cells were genetically modified via CRISPR/Cas9 to fuse HiBiT to the carboxy terminus of SMARCA2; host or cells: HeLa (CRISPR/Cas9 HiBiT knock-in). An outline of the steps: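 HeLa cells engineered by CRISPR/Cas9 to carry a HiBiT tag fused to the C-terminus of SMARCA2 (Promega CS302365) were grown in DMEM supplemented with FBS and penicillin-streptomycin. After treatment, remaining SMARCA2 protein was quantified with the Nano-Glo® HiBiT Lytic Detection Assay (Promega N3050), and curves were fitted in GraphPad Prism.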
(With HiBiT, luminescence reflects the tagged protein that the partner subunit can reach.)

Assay [2] deals with SMARCA4 (Homo sapiens, UniProt P51532). Briefly: HiBiT assay for protein degradation, Hela SMARCA4-HiBiT cells (A series). In kind it is cell-based. Further details: fuse HiBiT to the carboxy terminus of SMARCA2 (Promega CS302365) or SMARCA4 (Promega CS3023225); host or cells: HeLa (CRISPR/Cas9 HiBiT knock-in). Particulars: for Dmax: read-out: SMARC A4 Hela HiBit Dmax(%); for DC50: read-out: SMARC A4 Hela HiBit DC50. An outline of the steps: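 HeLa cells engineered by CRISPR/Cas9 to carry a HiBiT tag fused to the C-terminus of SMARCA4 (Promega CS3023225) were grown in DMEM supplemented with FBS and penicillin-streptomycin. After compound exposure, remaining SMARCA4 protein was quantified using the Nano-Glo® HiBiT Lytic Detection Assay (Promega N3050), and curves were fitted in GraphPad Prism.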

The mark [3] stands for this setting: Hela SMARCA4-HiBiT cells, 24 hours treatment.
The mark [4] stands for this setting: Hela SMARCA2-HiBiT cells, 24 hours treatment.

Chain of SMARCA4 (P51532 whole entry, the tested form may be a part): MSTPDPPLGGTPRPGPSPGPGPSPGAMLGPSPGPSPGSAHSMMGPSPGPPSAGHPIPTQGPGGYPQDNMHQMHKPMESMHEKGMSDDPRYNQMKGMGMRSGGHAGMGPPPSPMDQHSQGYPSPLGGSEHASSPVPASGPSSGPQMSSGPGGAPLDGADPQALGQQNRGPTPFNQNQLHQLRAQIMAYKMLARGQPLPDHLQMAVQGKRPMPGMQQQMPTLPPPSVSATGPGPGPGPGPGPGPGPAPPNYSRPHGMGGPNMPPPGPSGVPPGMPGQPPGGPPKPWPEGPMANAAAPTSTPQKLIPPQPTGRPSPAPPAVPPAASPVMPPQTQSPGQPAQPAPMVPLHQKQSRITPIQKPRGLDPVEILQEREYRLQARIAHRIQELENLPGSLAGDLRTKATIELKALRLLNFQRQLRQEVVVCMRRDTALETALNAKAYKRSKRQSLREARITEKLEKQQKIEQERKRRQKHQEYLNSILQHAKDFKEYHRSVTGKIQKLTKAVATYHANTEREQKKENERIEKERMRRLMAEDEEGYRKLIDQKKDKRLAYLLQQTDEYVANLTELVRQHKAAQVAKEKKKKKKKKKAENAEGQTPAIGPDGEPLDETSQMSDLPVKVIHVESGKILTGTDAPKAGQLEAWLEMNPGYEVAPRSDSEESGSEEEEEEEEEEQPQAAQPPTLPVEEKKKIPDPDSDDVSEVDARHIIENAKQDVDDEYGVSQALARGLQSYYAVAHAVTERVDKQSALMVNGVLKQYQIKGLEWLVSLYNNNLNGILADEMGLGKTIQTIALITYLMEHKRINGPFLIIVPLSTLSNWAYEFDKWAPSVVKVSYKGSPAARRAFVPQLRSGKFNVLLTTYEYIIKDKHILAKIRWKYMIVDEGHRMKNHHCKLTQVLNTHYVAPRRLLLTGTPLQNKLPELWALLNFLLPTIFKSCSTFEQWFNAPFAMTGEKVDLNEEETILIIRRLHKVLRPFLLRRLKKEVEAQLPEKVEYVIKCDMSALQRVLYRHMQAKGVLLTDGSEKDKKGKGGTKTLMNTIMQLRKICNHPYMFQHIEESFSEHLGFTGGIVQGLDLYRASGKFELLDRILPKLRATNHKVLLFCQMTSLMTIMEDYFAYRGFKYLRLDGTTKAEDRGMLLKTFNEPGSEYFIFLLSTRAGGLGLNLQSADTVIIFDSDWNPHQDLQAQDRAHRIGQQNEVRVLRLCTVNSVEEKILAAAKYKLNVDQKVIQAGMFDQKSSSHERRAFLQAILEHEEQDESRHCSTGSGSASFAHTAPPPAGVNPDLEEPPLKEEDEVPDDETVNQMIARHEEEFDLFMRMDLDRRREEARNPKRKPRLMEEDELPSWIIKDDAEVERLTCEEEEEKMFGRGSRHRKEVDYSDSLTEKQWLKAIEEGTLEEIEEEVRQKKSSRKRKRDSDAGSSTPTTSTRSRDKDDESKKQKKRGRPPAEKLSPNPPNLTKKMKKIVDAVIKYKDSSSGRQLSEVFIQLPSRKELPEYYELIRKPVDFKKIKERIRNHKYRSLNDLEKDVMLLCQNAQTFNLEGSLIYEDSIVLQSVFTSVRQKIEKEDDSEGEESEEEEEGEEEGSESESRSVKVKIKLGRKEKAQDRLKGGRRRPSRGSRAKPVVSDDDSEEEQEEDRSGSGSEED
Chain of SMARCA2 (P51531 whole entry, the tested form may be a part): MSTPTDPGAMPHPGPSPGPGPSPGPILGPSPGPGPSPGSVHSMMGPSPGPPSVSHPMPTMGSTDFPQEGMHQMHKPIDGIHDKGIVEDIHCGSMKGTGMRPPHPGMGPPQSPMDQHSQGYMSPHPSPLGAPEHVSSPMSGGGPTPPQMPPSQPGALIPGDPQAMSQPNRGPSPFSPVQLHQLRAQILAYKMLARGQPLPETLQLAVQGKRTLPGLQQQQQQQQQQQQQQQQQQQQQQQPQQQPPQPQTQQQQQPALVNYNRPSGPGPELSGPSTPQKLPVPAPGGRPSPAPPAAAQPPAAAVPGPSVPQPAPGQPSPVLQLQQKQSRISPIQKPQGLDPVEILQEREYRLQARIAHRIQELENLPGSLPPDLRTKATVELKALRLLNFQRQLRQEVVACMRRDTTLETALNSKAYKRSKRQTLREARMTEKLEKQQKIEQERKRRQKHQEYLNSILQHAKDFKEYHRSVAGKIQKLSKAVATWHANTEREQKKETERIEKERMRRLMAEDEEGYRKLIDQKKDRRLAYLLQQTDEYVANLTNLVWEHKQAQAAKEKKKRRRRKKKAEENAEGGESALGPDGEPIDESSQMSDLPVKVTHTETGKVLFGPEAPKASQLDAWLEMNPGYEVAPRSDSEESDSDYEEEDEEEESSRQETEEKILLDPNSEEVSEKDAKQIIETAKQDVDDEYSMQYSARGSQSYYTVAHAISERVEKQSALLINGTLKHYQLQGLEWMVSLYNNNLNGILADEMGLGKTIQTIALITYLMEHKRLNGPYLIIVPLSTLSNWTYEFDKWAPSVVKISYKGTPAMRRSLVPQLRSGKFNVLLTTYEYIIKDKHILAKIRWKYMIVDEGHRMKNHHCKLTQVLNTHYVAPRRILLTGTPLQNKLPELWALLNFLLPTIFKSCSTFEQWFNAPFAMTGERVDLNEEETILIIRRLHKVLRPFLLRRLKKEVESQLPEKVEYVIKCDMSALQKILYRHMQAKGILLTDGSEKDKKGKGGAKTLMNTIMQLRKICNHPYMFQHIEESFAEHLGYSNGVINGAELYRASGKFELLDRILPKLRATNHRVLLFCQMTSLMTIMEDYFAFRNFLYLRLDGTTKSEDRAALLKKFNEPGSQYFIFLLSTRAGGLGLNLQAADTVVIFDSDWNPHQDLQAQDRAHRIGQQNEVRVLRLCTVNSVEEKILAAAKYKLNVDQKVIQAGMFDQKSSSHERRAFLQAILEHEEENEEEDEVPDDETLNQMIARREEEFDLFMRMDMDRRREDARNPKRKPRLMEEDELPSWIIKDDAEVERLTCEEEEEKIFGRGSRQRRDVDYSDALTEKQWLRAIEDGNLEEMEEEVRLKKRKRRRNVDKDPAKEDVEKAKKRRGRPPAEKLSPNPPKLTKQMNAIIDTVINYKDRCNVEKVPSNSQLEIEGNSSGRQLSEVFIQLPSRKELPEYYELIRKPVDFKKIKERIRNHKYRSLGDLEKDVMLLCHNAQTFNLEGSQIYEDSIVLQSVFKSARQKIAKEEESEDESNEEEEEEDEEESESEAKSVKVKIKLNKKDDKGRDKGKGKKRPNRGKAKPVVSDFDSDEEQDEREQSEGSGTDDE

In the case of `Cc1ncsc1-c1ccc([C@H](C)NC(=O)[C@@H]2C[C@@H](O)CN2C(=O)[C@@H](NC(=O)C23CCC(CN4CCC(c5ccc6c(c5)C5(CCCCC5)c5nc(=O)c7c(Br)cccc7n5-6)CC4)(CC2)CC3)C(C)(C)C)cc1` [Compound A27, (2S,4R)-1-((S)-2-(4-((4-(4′-bromo-5′-oxo-5′H-spiro[cyclohexane-1,7′-indolo[1,2-a]quinazolin]-9′-yl)piperidin-1-yl)methyl)bicyclo[2.2.2]octane-1-carboxamido)-3,3-dimethylbutanoyl)-4-hydroxy-N—((S)-1-(4-(4-methylthiazol-5-yl)phenyl)ethyl)pyrrolidine-2-carboxamide], the Dmax in assay [1] (HeLa) fell in the range of 70 to 90%; in assay [2] (setting [3]) it was 50 to 69%. The DC50 was below 100 nM in assay [1] and 501 to 1000 nM in assay [2].

Take `Cc1ncsc1-c1ccc([C@H](CN2CCOCC2)NC(=O)[C@@H]2C[C@@H](O)CN2C(=O)[C@@H](NC(=O)C23CCC(CN4CCC(c5ccc6c(c5)C5(CCCCC5)c5nc(=O)c7c(Br)cccc7n5-6)CC4)(CC2)CC3)C(C)(C)C)cc1` [Compound A28, (2S,4R)-1-((S)-2-(4-((4-(4′-bromo-5′-oxo-5′H-spiro[cyclohexane-1,7′-indolo[1,2-a]quinazolin]-9′-yl)piperidin-1-yl)methyl)bicyclo[2.2.2]octane-1-carboxamido)-3,3-dimethylbutanoyl)-4-hydroxy-N—((R)-1-(4-(4-methylthiazol-5-yl)phenyl)-2-morpholinoethyl)pyrrolidine-2-carboxamide]: the “SMARC A2 Hela HiBit Dmax (%)” value in assay [1] (setting [4]) was “B (B (70-90% degradation))”. The DC50 is below 100 nM in assay [1] and 100 to 500 nM in assay [2]. Further, the “SMARC A4 Hela HiBit Dmax(%)” value in assay [2] (setting [3]) is “C (C (50-69% degradation))”.

With `Cc1ncsc1-c1ccc([C@H](C)NC(=O)[C@@H]2C[C@@H](O)CN2C(=O)[C@@H](NC(=O)C23CCC(CN4CCC(c5ccc6c(c5)-n5c(nc(=O)c7c(Br)cccc75)C65CCCCC5)CC4)(CC2)CC3)C(C)(C)C)cc1` [Compound A29], the values for the Dmax in assay [1] (HeLa) and in assay [2] (setting [3]) were 70 to 90% and below 50%, respectively. In addition, the DC50 is below 100 nM in assay [1] and above 1000 nM in assay [2].

With `Cc1ncsc1-c1ccc([C@H](CN2CCOCC2)NC(=O)[C@@H]2C[C@@H](O)CN2C(=O)[C@@H](NC(=O)C23CCC(CN4CCC(c5ccc6c(c5)-n5c(nc(=O)c7c(Br)cccc75)C65CCCCC5)CC4)(CC2)CC3)C(C)(C)C)cc1` [Compound A30, (2S,4R)-1-((S)-2-(4-((4-(4′-bromo-5′-oxo-5′H-spiro[cyclohexane-1,7′-indolo[1,2-a]quinazolin]-10′-yl)piperidin-1-yl)methyl)bicyclo[2.2.2]octane-1-carboxamido)-3,3-dimethylbutanoyl)-4-hydroxy-N—((R)-1-(4-(4-methylthiazol-5-yl)phenyl)-2-morpholinoethyl)pyrrolidine-2-carboxamide], in assay [1] (setting [4]), the “SMARC A2 Hela HiBit Dmax (%)” value is reported as “B (B (70-90% degradation))”. For the same compound, the half-maximal degradation concentration (DC50) in assay [1] was below 100 nM; in assay [2], above 1000 nM. The “SMARC A4 Hela HiBit Dmax(%)” value in assay [2] (setting [3]) is “D (D (<50% degradation))”.

With `Cc1ncsc1-c1ccc([C@H](C)NC(=O)[C@@H]2C[C@@H](O)CN2C(=O)[C@@H](n2cc([C@H]3CC[C@H](CN4CCC(c5ncc6c(n5)-n5c(nc(=O)c7c(Br)cccc75)C65CCCCC5)CC4)CC3)nn2)C(C)(C)C)cc1` [Compound A31, (2S,4R)-1-((S)-2-(4-((1r,4S)-4-((4-(4′-bromo-5′-oxo-5′H-spiro[cyclohexane-1,7′-pyrimido[5′,4′: 4,5]pyrrolo[1,2-a]quinazolin]-10′-yl)piperidin-1-yl)methyl)cyclohexyl)-1H-1,2,3-triazol-1-yl)-3,3-dimethylbutanoyl)-4-hydroxy-N—((S)-1-(4-(4-methylthiazol-5-yl)phenyl)ethyl)pyrrolidine-2-carboxamide], in assay [1] (setting [4]), the DC50 is above 1000 nM and the Dmax was below 50%. Moreover, in assay [2] (setting [3]), the DC50 is above 1000 nM and the Dmax was in the range of 50 to 69%.

As to `Cc1ncsc1-c1ccc([C@H](CN2CCOCC2)NC(=O)[C@@H]2C[C@@H](O)CN2C(=O)[C@@H](n2cc([C@H]3CC[C@H](CN4CCC(c5ncc6c(n5)-n5c(nc(=O)c7c(Br)cccc75)C65CCCCC5)CC4)CC3)nn2)C(C)(C)C)cc1` [Compound A32, (2S,4R)-1-((S)-2-(4-((1r,4S)-4-((4-(4′-bromo-5′-oxo-5′H-spiro[cyclohexane-1,7′-pyrimido[5′,4′: 4,5]pyrrolo[1,2-a]quinazolin]-10′-yl)piperidin-1-yl)methyl)cyclohexyl)-1H-1,2,3-triazol-1-yl)-3,3-dimethylbutanoyl)-4-hydroxy-N—((R)-1-(4-(4-methylthiazol-5-yl)phenyl)-2-morpholinoethyl)pyrrolidine-2-carboxamide], the DC50 in assay [1] (setting [4]) and in assay [2] (setting [3]) was above 1000 nM throughout. Moreover, the values for the Dmax in assay [1] (setting [4]) and in assay [2] (setting [3]) were below 50% and 70 to 90%, respectively.

Take `Cc1ncsc1-c1ccc([C@H](Cn2cc([C@H]3CC[C@H](CN4CCC(c5ccc6c(c5)C5(CCCCC5)c5nc(=O)c7c(Br)cccc7n5-6)CC4)CC3)nn2)NC(=O)[C@@H]2C[C@@H](O)CN2C(=O)[C@@H](NC(=O)C2(F)CC2)C(C)(C)C)cc1` [Compound A33, (2S,4R)—N—((R)-2-(4-((1r,4R)-4-((4-(4′-bromo-5′-010-5′H-spiro[cyclohexane-1,7′-indolo[1,2-a]quinazolin]-9′-yl)piperidin-1-yl)methyl)cyclohexyl)-1H-1,2,3-triazol-1-yl)-1-(4-(4-methylthiazol-5-yl)phenyl)ethyl)-1-((S)-2-(1-fluorocyclopropane-1-carboxamido)-3,3-dimethylbutanoyl)-4-hydroxypyrrolidine-2-carboxamide]: the half-maximal degradation concentration (DC50) in assay [1] (setting [4]) was below 100 nM; in assay [2] (setting [3]) it was 100 to 500 nM. The Dmax in assay [1] (setting [4]) was above 90%; in assay [2] (setting [3]) it was 70 to 90%.

In the case of `Cc1ncsc1-c1ccc([C@H](Cn2cc([C@H]3CC[C@H](CN4CCC(c5ccc6c(n5)-n5c(nc(=O)c7c(Br)cccc75)C65CCCCC5)CC4)CC3)nn2)NC(=O)[C@@H]2C[C@@H](O)CN2C(=O)[C@@H](NC(=O)C2(F)CC2)C(C)(C)C)cc1` [Compound A34, (2S,4R)—N—((R)-2-(4-((1r,4R)-4-((4-(4′-bromo-5′-oxo-5′H-spiro[cyclohexane-1,7′-pyrido[3′,2′: 4,5]pyrrolo[1,2-a]quinazolin]-10′-yl)piperidin-1-yl)methyl)cyclohexyl)-1H-1,2,3-triazol-1-yl)-1-(4-(4-methylthiazol-5-yl)phenyl)ethyl)-1-((S)-2-(1-fluorocyclopropane-1-carboxamido)-3,3-dimethylbutanoyl)-4-hydroxypyrrolidine-2-carboxamide], in assay [1] (setting [4]), the DC50 was in the range of 501 to 1000 nM and the Dmax lay in the range of 50 to 69%. Besides, in assay [2] (setting [3]), the DC50 was above 1000 nM and the Dmax was below 50%.

As for `Cc1ncsc1-c1ccc([C@H](CCCCCN2CCC(c3ccc4c(c3)C3(CCCCC3)c3nc(=O)c5c(Br)cccc5n3-4)CC2)NC(=O)[C@H]2C[C@H](O)CN2C(=O)[C@@H](n2cc(C3CC3)nn2)C(C)(C)C)cc1` [Compound A35, (2R,4S)—N—((S)-6-(4-(4′-bromo-5′-oxo-5′H-spiro[cyclohexane-1,7′-indolo[1,2-a]quinazolin]-9′-yl)piperidin-1-yl)-1-(4-(4-methylthiazol-5-yl)phenyl)hexyl)-1-((S)-2-(4-cyclopropyl-1H-1,2,3-triazol-1-yl)-3,3-dimethylbutanoyl)-4-hydroxypyrrolidine-2-carboxamide], in assay [1] (setting [4]), the 50% degradation concentration (DC50) was below 100 nM and the Dmax is above 90%. In assay [2] (setting [3]), the DC50 was below 100 nM and the Dmax was above 90%.

With `Cc1ncsc1-c1ccc([C@H](CCCCCN2CCC(c3ccc4c(c3)-n3c(nc(=O)c5c(Br)cccc53)C43CCCCC3)CC2)NC(=O)[C@H]2C[C@H](O)CN2C(=O)[C@@H](n2cc(C3CC3)nn2)C(C)(C)C)cc1` [Compound A36, (2R,4S)—N—((S)-6-(4-(4′-bromo-5′-oxo-5′H-spiro[cyclohexane-1,7′-indolo[1,2-a]quinazolin]-10′-yl)piperidin-1-yl)-1-(4-(4-methylthiazol-5-yl)phenyl)hexyl)-1-((S)-2-(4-cyclopropyl-1H-1,2,3-triazol-1-yl)-3,3-dimethylbutanoyl)-4-hydroxypyrrolidine-2-carboxamide], in assay [1] (setting [4]), the half-maximal degradation concentration (DC50) is below 100 nM and the maximal degradation (Dmax) was above 90%. In assay [2] (setting [3]), the DC50 is below 100 nM and the Dmax was above 90%.
